Data on ten compounds can be found in patent US20240425464A1, “Substituted Monohydrazides as Potent Antifungal Agents” (University of Kentucky Research Foundation, priority 2023, published 2024).

Molecules are shown by their SMILES. ≈ marks a conversion by molar mass, not a printed value. Like-named read-outs stand apart in the source and are kept apart here. Bounds are passed on as bounds.

Common to all, as to experiment: MIC determination by in vitro antifungal assay
Type in all cases: cell-based

In test [1] the test system is Cryptococcus neoformans ATCC MYA-895 (M). Particulars: strain M = C. neoformans ATCC MYA-895. The method, boiled down:
(§1)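 CLSI M27-A3/M38-A2 microdilution, modified. Medium: RPMI 1640 + 0.165 M MOPS, pH 7.0. Compound range 0.06-31.3 μg/mL, double dilution. Incubation 48 h, 35° C. Yeast inoculum: OD600 0.12 (˜1×10^6 CFU/mL), then 1:100.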

The test system of test [2] is Aspergillus nidulans ATCC 38163 (P). Summed up:
(§2)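 Fungi are exposed to compounds (0.06-31.3 μg/mL, double dilution) in RPMI 1640 adjusted to pH 7.0 with MOPS. Incubation runs 48 h at 35° C, based on CLSI M27-A3/M38-A2. Yeast suspensions start at ˜1×10^6 CFU/mL and are diluted 1:100.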

Test [3] relates to Aspergillus flavus ATCC MYA-3631 (O). Particulars: strain O = A. flavus ATCC MYA-3631. The method, boiled down: as §2
The test system of test [4] is Aspergillus terreus ATCC MYA-3633 (N). The following applies: strain N = A. terreus ATCC MYA-3633. Summed up:
as §2

Test [5] has as its system Candida parapsilosis ATCC 22019 (J). The method, boiled down:
as §1

The test system of test [6] is Candida krusei ATCC 6258 (I). Summed up:
as §1

The subject of test [7] is Candida glabrata ATCC 2001 (H). The following applies: ATCC 2001 in text. The method, boiled down: as §1
Where [8] appears, read: strain P = A. nidulans ATCC 38163.
Setting [9] is: strain J = C. parapsilosis ATCC 22019.
The mark [10] stands for this setting: strain H = C. glabrata ATCC 2004 (footnote).
The mark [11] stands for this setting: Cryptococcus neoformans, read-out: MIC.
[12] abbreviates: Aspergillus nidulans, ATCC38163, strain P = A. nidulans ATCC 38163, read-out: MIC.
Setting [13] is: Aspergillus flavus, read-out: MIC.
The mark [14] stands for this setting: Aspergillus terreus, read-out: MIC.
Where [15] appears, read: Lodderomyces parapsilosis, ATCC22019, strain J = C. parapsilosis ATCC 22019, read-out: MIC.
The mark [16] stands for this setting: Pichia kudriavzevii, ATCC6258, strain I = C. krusei ATCC 6258, read-out: MIC.
The mark [17] stands for this setting: Nakaseomyces glabratus, ATCC 2001 / ATCC 2004, strain H = C. glabrata ATCC 2004 (footnote), read-out: MIC.

As to `O=C(NNc1ccc(F)cc1)c1ccc(F)cn1` [Compound 3d], the MIC in test [1] stood at 0.98 μg/mL^−1; in test [2] (setting [8]) it was 0.98 μg/mL^−1; in test [3], 15.6 μg/mL^−1; in test [4], 3.9 μg/mL^−1; in test [5] (setting [9]), 3.9 μg/mL^−1; in test [6] (strain I = C. krusei ATCC 6258) it was 0.49 μg/mL^−1. This compound also showed an MIC in test [7] (setting [10]) of 15.6 μg/mL^−1.

For `O=C(NNc1cccc(Cl)c1)c1cnccn1` [Compound 9b], the MIC in test [1] (setting [11]) is 0.24 µg/mL (≈ 0.965 µM); in test [2] (setting [12]), 0.98 µg/mL (≈ 3.94 µM); in test [3] (setting [13]) it was more than 31.3 µg/mL; in test [4] (setting [14]), 0.98 µg/mL (≈ 3.94 µM); in test [5] (setting [15]) it was 1.95 µg/mL (≈ 7.84 µM); in test [6] (setting [16]), 0.24 µg/mL (≈ 0.965 µM). Further, the MIC in test [7] (setting [17]) is 3.9 µg/mL (≈ 15.7 µM).

As to `O=C(NNc1ccc(F)cc1F)c1nc(F)ccc1F` [Compound 8g], the MIC in test [1] (setting [11]) was 0.49 µg/mL (≈ 1.72 µM); in test [2] (setting [12]), 0.49 µg/mL (≈ 1.72 µM); in test [3] (setting [13]), more than 31.3 µg/mL; in test [4] (setting [14]), 31.3 µg/mL (≈ 110 µM); in test [5] (setting [15]) it was 15.6 µg/mL (≈ 54.7 µM); in test [6] (setting [16]), 0.49 µg/mL (≈ 1.72 µM). Further, in test [7] (setting [17]), the MIC was found to be 15.6 µg/mL (≈ 54.7 µM).

In the case of `COc1ccc(NNC(=O)c2ccccn2)cc1` [Compound 2f], the MIC was 0.49 µg/mL (≈ 2.01 µM) in test [1] (setting [11]); 0.49 µg/mL (≈ 2.01 µM) in test [2] (setting [12]); more than 31.3 µg/mL in test [3] (setting [13]); 31.3 µg/mL (≈ 129 µM) in test [4] (setting [14]); 3.9 µg/mL (≈ 16 µM) in test [5] (setting [15]); 0.49 µg/mL (≈ 2.01 µM) in test [6] (setting [16]). Further, the MIC in test [7] (setting [17]) worked out at 0.98 µg/mL (≈ 4.03 µM).

As for `O=C(NNc1ccc(F)cc1)c1ncc(F)cc1F` [Compound 7d], the MIC in test [1] (setting [11]) was 0.49 µg/mL (≈ 1.83 µM); in test [2] (setting [12]), 0.49 µg/mL (≈ 1.83 µM); in test [3] (setting [13]), 7.8 µg/mL (≈ 29.2 µM); in test [4] (setting [14]), 3.9 µg/mL (≈ 14.6 µM); in test [5] (setting [15]) it was 3.9 µg/mL (≈ 14.6 µM); in test [6] (setting [16]), 0.49 µg/mL (≈ 1.83 µM). Also, in test [7] (setting [17]), the MIC came to 15.6 µg/mL (≈ 58.4 µM).

For the compound `COc1ccc(NNC(=O)c2ncc(F)cc2F)cc1` [Compound 7f], the MIC in test [1] (setting [11]) was 1.95 µg/mL (≈ 6.98 µM); in test [2] (setting [12]) it was 1.95 µg/mL (≈ 6.98 µM); in test [3] (setting [13]), more than 31.3 µg/mL; in test [4] (setting [14]), 31.3 µg/mL (≈ 112 µM); in test [5] (setting [15]), 7.8 µg/mL (≈ 27.9 µM); in test [6] (setting [16]), 0.98 µg/mL (≈ 3.51 µM). In test [7] (setting [17]), the MIC was determined as 7.8 µg/mL (≈ 27.9 µM).

Turning to `C[C@@H]1[C@H](O)[C@@H](C)/C=C/C=C/C=C/C=C/C=C/C=C/C=C/[C@H](O[C@@H]2O[C@H](C)[C@@H](O)[C@H](N)[C@@H]2O)C[C@@H]2O[C@](O)(C[C@@H](O)C[C@@H](O)[C@H](O)CC[C@@H](O)C[C@@H](O)CC(=O)O[C@H]1C)C[C@H](O)[C@H]2C(=O)O` [AmB, amphotericin B, reference compound], the MIC in test [1] worked out at 7.8 μg/mL^−1; in test [2] (setting [8]), 15.6 μg/mL^−1; in test [3], 31.3 μg/mL^−1; in test [4] it was 3.9 μg/mL^−1; in test [5] (setting [9]), 0.98 μg/mL^−1; in test [6] (strain I = C. krusei ATCC 6258) it was 0.98 μg/mL^−1. The same compound yielded an MIC in test [7] (setting [10]) of 0.98 μg/mL^−1.

For `COc1cccc(NNC(=O)c2ncc(F)cc2F)c1` [Compound 7c], the MIC was 15.6 µg/mL (≈ 55.9 µM) in test [1] (setting [11]); 15.6 µg/mL (≈ 55.9 µM) in test [2] (setting [12]); more than 31.3 µg/mL in test [3] (setting [13]); 31.3 µg/mL (≈ 112 µM) in test [4] (setting [14]); 15.6 µg/mL (≈ 55.9 µM) in test [5] (setting [15]); 15.6 µg/mL (≈ 55.9 µM) in test [6] (setting [16]). The MIC in test [7] (setting [17]) came out at 15.6 µg/mL (≈ 55.9 µM).

As for `COc1ccc(NNC(=O)c2nc(F)ccc2F)cc1` [Compound 8f], the MIC is 0.98 µg/mL (≈ 3.51 µM) in test [1] (setting [11]); 1.95 µg/mL (≈ 6.98 µM) in test [2] (setting [12]); more than 31.3 µg/mL in test [3] (setting [13]); 31.3 µg/mL (≈ 112 µM) in test [4] (setting [14]); 7.8 µg/mL (≈ 27.9 µM) in test [5] (setting [15]); 0.98 µg/mL (≈ 3.51 µM) in test [6] (setting [16]). Moreover, in test [7] (setting [17]), the MIC amounted to 7.8 µg/mL (≈ 27.9 µM).

Regarding `O=C(NNc1ccc(Cl)cc1)c1cnccn1` [Compound 9e], the MIC is given as 0.98 μg/mL^−1 in test [1]; 1.95 μg/mL^−1 in test [2] (setting [8]); more than 31.3 μg/mL^−1 in test [3]; 7.8 μg/mL^−1 in test [4]; 7.8 μg/mL^−1 in test [5] (setting [9]); 3.9 μg/mL^−1 in test [6] (strain I = C. krusei ATCC 6258). The same compound had an MIC in test [7] (setting [10]) of 1.95 μg/mL^−1.
